Source: patent US12318386B2, “Combination of XPO1 inhibitors and second agents for the treatment of prostate cancer” (Karyopharm Therapeutics Inc., priority 2018, dated 2025)

Columns and labels:
AR [1] = test: AR mRNA expression by real-time RT-qPCR in 22Rv1 cells; type: cell-based; conditions: 200 nM, 48 hours, vs control before treatment
Protocol: (§1) Prostate cancer cell line 22Rv1 was treated with KPT-8602 and the effect of the treatment on the expression of AR and AR splice variant AR-v7 was determined. 22Rv1 cells were treated with 200 nM KPT-8602 for 48 hours and the mRNA expression levels of AR and AR-v7 before (control) and after treatment were measured by real-time RT-qPCR using High Capacity cDNA Reverse Transcription Kit and SYBR Green Master Mixture from Applied Biosystems (Waltham, MA).

AR-v7 = AR-v7 mRNA expression by real-time RT-qPCR in 22Rv1 cells; type: cell-based; conditions: 200 nM, 48 hours, vs control before treatment
Protocol: as §1

AR [2] = test: Western blot of AR protein levels; type: cell-based; conditions: 22Rv1 cells, 250 nM, 72 hours
Protocol: (§2) Total proteins were subjected to 10 or 14% SDS-PAGE, and electrophoretically transferred to nitrocellulose membrane. The membranes were incubated with specific primary antibodies, and subsequently incubated with secondary antibody conjugated with peroxidase (Bio-rad, Hercules, CA). The signal was detected using the chemiluminescent detection system (PIERCE).

ARv = test: Western blot of ARv protein levels; type: cell-based; conditions: 22Rv1 cells, 250 nM, 72 hours
Protocol: as §2

[3] = system: 22Rv1 prostate cancer xenograft; test: 22Rv1 prostate cancer xenograft model in CB.17 SCID mice; type: in vivo; conditions: 15 mg/kg, QDx5/week
Protocol: The effect of KPT-8602 (15 mg/kg, QDx5/week) in a 22Rv1 prostate cancer xenograft model in CB.17 SCID mice was evaluated. Mouse weights and tumor size were monitored three times a week. Each mouse was euthanized at the end of study (Day 35) or when tumor volume reached 1000 mm^3, whichever comes first.

[4] = system: xenograft samples derived from 22Rv1 cells; test: Immunohistochemistry of 22Rv1 xenograft samples; type: in vivo, mice
From the text: Increased nuclear staining of tumor suppressor proteins Rb, p21, p53, APC and SMAD4 were also observed in samples treated with KPT-8602.
A tissue microarray (TMA) was constructed with tumor samples collected from 22Rv1 mouse prostate cancer cell. Paraffin sections of the TMA were processed ans stained with antibodies using a Biogenex 16000 automated stainer. Digital images of the slides were obtained through an Aperio AT Turbo scanner 20×. The following antibodies were used for immunohistochemistry staining: Cleaved Caspase 3 (Cell Singaling Technology, 9661), p21 (Cell Signaling Technology, 2947), APC (Abcam, ab15270), Ki67 (Cell Marque, 275R-18), Rb (Abcam, ab181616, p53 (Santa Cruz, sc-126), and SMAD4 (Santa Cruz, sc-7966).

[5] = system: Relapsed/Refractory Metastatic Castration Resistant Prostate Cancer (mCRPC); test: Clinical trial in relapsed/refractory mCRPC, KPT-8602 alone and with abiraterone; type: in vivo, human
Protocol: • 1. Histologically confirmed adenocarcinoma of the prostate with archival tumor tissue available for molecular analyses. • 2. Surgically or medically castrated, with testosterone levels of <50 ng/dL (<2.0 nM). • 3. Documented mCRPC progression as assessed by the Investigator with one of the following: • a. Prostate specific antigen (PSA) progression defined by a minimum of 3 rising PSA levels (at approximately Day −30 and approximately Day −45) with an interval of >1 week between each determination. The PSA values at the Screening visit should be >2 μg/L (>2 ng/mL); patients on systemic glucocorticoids for control of symptoms must have documented PSA progression by Prostate Cancer Working Group 3 (PCWG3) while on systemic glucocorticoids prior to commencing C1D1 of treatment. • b. Radiographic progression of soft tissue disease by modified RECIST criteria 1.1 or of bone metastasis with 2 or more documented new bone lesions on a bone scan with or without PSA progression. • 4. Initial response (per modified PCWG3 Guidelines) to second generation anti-hormonal therapy (examples: abiraterone, enzalutamide, TAK 700), but later relapsed. Disease relapse would be defined as progressive disease at the time of entry per inclusion criterion 3. • 5. Zero to 2 previous taxane-based chemotherapy regimens. • 6. At least 2 weeks from completion of any radiotherapy including a single fraction of radiotherapy for the purposes of palliation (confined to one field) is permitted. • 7. Patients should not be transfusion dependent. • 8. Albumin>2.5 g/dL. • 9. Adequate hematopoietic function: ANC≥1000/mm^3, hemoglobin (Hb)≥9.0 g/dL, and platelet count≥100,000/mm^3. • 10. Eastern Cooperative Oncology Group (ECOG) performance status of ≤1. • 11. Life expectancy of ≥4 months. Additional Criteria for Combination Therapy Patients (KPT-8602 and Abiraterone) • 12. Patients currently receiving treatment with abiraterone and appropriate to continue in the opinion of the Investigator (some patients may be progressing). Patients must also have been on and continue on a stable dose of corticosteroids (prednisone or dexamethasone) for 30 days prior to C1D1. B. Patient Characteristics and Demographics
Patients treated with KPT-8602 alone received oral KPT-8602 for 5 days per week (QDx5) at dose levels of 20 and 30 mg. Patients treated with KPT-8602 and abiraterone received oral KPT-8602 for 5 days per week (QDx5) at dose levels of 20 and 30 mg and the dose and schedule of abiraterone and corticosteroids that they were receiving at the time of enrollment. For example, a typical dose of ZYTIGA (abiraterone acetate) is 1000 mg orally once daily with prednisone 5 mg orally twice daily. A full cycle was 28 days long. A representative cycle of KPT-8602 dosing is oral administration 5 out of 7 consecutive days in a week for a 28-day cycle (e.g., Days 1-5, 8-12, 15-19 and 22-26 of each 28-day cycle).
Responses were assessed using RECIST v 1.1 criteria once every 28-day cycle. PR: Partial Response, SD: Stable Disease, PD: Progressive Disease, DCR: Disease Control Rate. 7 Non-evaluable patients: 2AE, 2 patient decision, 2 physician decision, 1 patient non-compliant.
All patients had their disease assessed per modified PCWG3 Guidelines including RECIST v1.1 (see below) by the following tests at pre-determined the time points. • PSA: Disease specific clinical lab assessment • Testosterone: Disease specific clinical lab assessment • Bone scan and CT (or MRI) scan of the abdomen and pelvis (RECIST v.1.1): Patients will receive a bone scan to monitor and assess bone disease progression and CT (or MRI) of the abdomen and pelvis (and chest, if indicated) to monitor and assess soft tissue disease progression per PCWG3 including RECIST v.1.1. […]

[6] = RECIST v1.1, evaluable patients, KPT-8602 20 and 30 mg QDx5

## NC(=O)/C(=C/n1cnc(-c2cc(C(F)(F)F)cc(C(F)(F)F)c2)n1)c1cncnc1 [KPT-8602]
AR [1]
  mRNA expression of AR: significantly inhibited
AR-v7
  mRNA expression of AR-v7: significantly inhibited
AR [2]
  protein levels of AR: significantly decreased
ARv
  protein levels of ARv: significantly decreased
[3]
  survival: prolongs
  tumor growth: significantly inhibits
[3]; Kaplan-Meier, end of study Day 35, vehicle 20 days
  median OS (overall survival): undefined
[3]; compared to vehicle
  % TGI (tumor growth inhibition) on Day 16: 87%
[4]
  nuclear staining of tumor suppressor protein APC: Increased
  nuclear staining of tumor suppressor protein Rb: Increased
  nuclear staining of tumor suppressor protein SMAD4: Increased
  nuclear staining of tumor suppressor protein p21: Increased
  nuclear staining of tumor suppressor protein p53: Increased
[4]; compared to vehicle controls
  apoptotic molecule (Cleaved Caspase 3): increased
  cell proliferation marker (Ki67): decreased
[5]; Kaplan-Meier analysis, evaluable patients
  median PFS: 5.9 months
[5]; [6]
  DCR (PR + SD) SD ≥ 8 weeks, % of patients: 82%
  DCR (PR + SD) SD ≥ 8 weeks, number of patients: 9
  DCR (PR + SD) SD ≥ 16 weeks, % of patients: 55%
  DCR (PR + SD) SD ≥ 16 weeks, number of patients: 6
  PD (Progressive Disease), % of patients: (18%)
  PD (Progressive Disease), number of patients: 2
  PR (Partial Response), % of patients: (9%)
  PR (Partial Response), number of patients: 1
[5]; evaluable patients, 20 mg KPT-8602
  Median ToT (Time on Treatment): 96 days
[5]; evaluable patients, 30 mg KPT-8602
  Median ToT (Time on Treatment): 134 days
[5]; evaluable patients, all doses (20 and 30 mg KPT-8602)
  Median ToT (Time on Treatment): 96 days
